In US20160000066A1, “Furfural derivatives as a vehicle” (priority 2013, published 2016):
Blank lines part the entries; values can stand above or below the molecule they belong to.

Assays:
Assay type in all cases: physicochemical
[1] = Solubilization of resins in the test solvent: BADGE DER 331; conditions: BADGE DER 331 in the compound as solvent
Method: (§1) The following table lists the solubilities obtained for four resins tested: BADGE DER 331 epoxy resin sold by DOW CHEMICAL, Palatal A400-01 polyester resin sold by DSM, Novolac DEN 425 epoxy resin sold by DOW CHEMICAL and TGPA resin available from Sigma Aldrich.
(§2) A single solubility test was carried out per solvent/resin pair, at a working concentration of 100 g/l, at ambient temperature. The tests were carried out on the milliliter scale (i.e., 0.5 g/5 ml). The tests are carried out in transparent glass flasks. The resin (0.5 g) is weighed into the flask and then the required volume (5 ml) of test solvent is introduced into this same flask. Stirring is carried out using a vortex mixer for 1 to 5 minutes. The results for solubility of the resins in the solvents tested, shown in the table below, are obtained by visual observations.

[2] = Solubilization of resins in the test solvent: Palatal A400-01; conditions: Palatal A400-01 in the compound as solvent
Method: as §1, §2

[3] = Solubilization of resins in the test solvent: Novolac DEN 425; conditions: Novolac DEN 425 in the compound as solvent
Method: as §1, §2

[4] = Solubilization of resins in the test solvent: TGPA; conditions: TGPA in the compound as solvent, visual
Method: as §1, §2

[5] = adjusted protocol: solvent heated on a water bath at 30° C. before the test

Structure (SMILES): CC(C)C(=O)/C=C/c1ccco1 [(3)]
Solubility at ambient temperature (100 g/l) ([1]; ambient temperature, visual): Soluble
Solubility at ambient temperature (100 g/l) [4]: Soluble
Solubility at ambient temperature (100 g/l) ([2]; ambient temperature, visual): Soluble
Solubility at ambient temperature (100 g/l) ([3]; ambient temperature, visual): Soluble

Structure (SMILES): O=C(OCCc1ccccc1)c1ccco1 [(10)]
Solubility at ambient temperature (100 g/l) ([1]; ambient temperature, visual): Soluble
Solubility at ambient temperature (100 g/l) [4]: Soluble
Solubility at ambient temperature (100 g/l) ([2]; ambient temperature, visual): Soluble
Solubility at ambient temperature (100 g/l) ([3]; ambient temperature, visual): Soluble

Structure (SMILES): CCCCN=Cc1ccco1 [(15)]
Solubility at ambient temperature (100 g/l) ([1]; ambient temperature, visual): Partial
Solubility at ambient temperature (100 g/l) [4]: Soluble
Solubility at ambient temperature (100 g/l) ([2]; ambient temperature, visual): Soluble
Solubility at ambient temperature (100 g/l) ([3]; ambient temperature, visual): Soluble

Structure (SMILES): CCCCCCCCN=Cc1ccco1 [(16)]
Solubility at ambient temperature (100 g/l) ([1]; ambient temperature, visual): Partial
Solubility at ambient temperature (100 g/l) [4]: Soluble
Solubility at ambient temperature (100 g/l) ([2]; ambient temperature, visual): Soluble
Solubility at ambient temperature (100 g/l) ([3]; ambient temperature, visual): Soluble

Structure (SMILES): Cc1ccc(C=O)o1 [(17)]
Solubility at ambient temperature (100 g/l) ([1]; ambient temperature, visual): Soluble
Solubility at ambient temperature (100 g/l) [4]: Soluble
Solubility at ambient temperature (100 g/l) ([2]; ambient temperature, visual): Soluble
Solubility at ambient temperature (100 g/l) ([3]; ambient temperature, visual): Soluble

The next lines start with the values.

Solubility at ambient temperature (100 g/l) [1, 5]: Soluble*
Solubility at ambient temperature (100 g/l) [2, 5]: Soluble*
Solubility at ambient temperature (100 g/l) [3, 5]: Soluble*
Structure (SMILES): CC(=O)/C=C/c1ccco1 [(1)]

Solubility at ambient temperature (100 g/l) ([1]; ambient temperature, visual): Partial
Solubility at ambient temperature (100 g/l) ([2]; ambient temperature, visual): Soluble
Solubility at ambient temperature (100 g/l) ([3]; ambient temperature, visual): Soluble
Structure (SMILES): CCCOC(=O)c1ccco1 [(6)]

Solubility at ambient temperature (100 g/l) ([1]; ambient temperature, visual): Soluble
Solubility at ambient temperature (100 g/l) [4]: Soluble
Solubility at ambient temperature (100 g/l) ([2]; ambient temperature, visual): Soluble
Solubility at ambient temperature (100 g/l) ([3]; ambient temperature, visual): Soluble
Structure (SMILES): COC(=O)c1ccco1 [(8)]

Solubility at ambient temperature (100 g/l) ([1]; ambient temperature, visual): Soluble
Solubility at ambient temperature (100 g/l) [4]: Soluble
Solubility at ambient temperature (100 g/l) ([2]; ambient temperature, visual): Soluble
Solubility at ambient temperature (100 g/l) ([3]; ambient temperature, visual): Soluble
Structure (SMILES): CCCCCOC(=O)c1ccco1 [(9)]
